Laboratory results published in US12606543B2, “Indole derivatives as serotonergic agents useful for the treatment of disorders related thereto” (priority 2023, dated 2026).
Read-outs that look alike come from different tables or passages of the source.

What was measured:
[1] = target: human 5-hydroxytryptamine receptor 2A (5-HT2A) (Homo sapiens, UniProt P28223); assay: biochemical; type: binding
Experimental: The objective of this study was to evaluate the binding properties of exemplary compounds of Formula (I) on 5-hydroxytryptamine receptor 2A (5-HT2A).
1. The assay buffer was prepared following Table 17 below.
2. 8 doses of reference and test compounds starting from 10 mM stock solution as required were prepared by 5-fold serial dilutions with 100% (v/v) DMSO.
3. UniFilter-96 GF/B plate was pretreated: • i. 50 μl/well of 0.5% (v/v) PEI was added to UniFilter-96 GF/C plates. The plates were sealed and incubated at 4° C. for 3 hours (hrs). • ii. After incubation, the plates were washed 3 times with ice-cold wash buffer (50 mM Tris, pH7.4).
4. The assay plate was prepared: • i. Cell membrane was diluted with assay buffer and 330 μl/well was added to 96 round deep well plates to reach a concentration of 20 μg/well. • ii. 8 concentrations of reference or test compounds were prepared and 110 μl/well was added to 96 round deep well plates. • iii. [3H]-ketanserin was diluted with assay buffer to 5 nM (5× final concentration) and 110 μl/well was added to 96 round deep well plates.
5. The plate was centrifuged at 1000 rpm for 30 seconds (secs) and then agitated at 600 rpm at room temperature for 5 min.
6. The plates were sealed and the plate incubated at 27° C. for 90 min.
7. The incubation was stopped by vacuum filtration onto GF/B filter plates followed by 4 times washing with ice-cold wash buffer (50 mM Tris, pH7.4).
8. The filter plates were sealed and 40 μl/well of scintillation cocktail was added.
10. The plate was read by using a Microbeta^2 microplate counter.
1. For reference and test compounds, the results were expressed as % Inhibition, using the normalization equation: N=100−100×(U−C2)/(C1−C2), where U is the unknown value, C1 is the average of high controls, and C2 is the average of low controls.
2. The IC50 was determined by fitting percentage of inhibition as a function of compound concentrations with Hill equation using XLfit. […]
9. The filter plates were sealed and 40 μl/well of scintillation cocktail was added.

human 5-HT1A receptor = target: T1, human 5-HT1A receptor (Homo sapiens, UniProt P08908); assay: Human 5-HT1A cAMP assay; type: cell-based; conditions: for Emax (% of serotonin): cAMP assay, CHO-K1 cells, relative to maximum response of serotonin
T1 construct: expressed in transfected cells; host or cells: CHO-K1
T1 sequence (P08908 1-422): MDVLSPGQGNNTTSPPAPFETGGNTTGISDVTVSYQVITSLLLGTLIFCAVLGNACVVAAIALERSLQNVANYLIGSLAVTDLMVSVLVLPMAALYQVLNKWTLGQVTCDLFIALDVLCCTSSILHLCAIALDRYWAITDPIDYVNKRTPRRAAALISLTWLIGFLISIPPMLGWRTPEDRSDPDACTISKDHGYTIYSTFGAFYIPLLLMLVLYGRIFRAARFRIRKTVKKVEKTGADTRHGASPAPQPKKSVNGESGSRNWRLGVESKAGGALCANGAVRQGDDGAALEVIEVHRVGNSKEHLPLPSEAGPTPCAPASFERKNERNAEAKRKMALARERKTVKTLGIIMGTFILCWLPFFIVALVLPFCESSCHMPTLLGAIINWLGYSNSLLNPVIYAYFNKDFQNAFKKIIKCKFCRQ
Experimental: Compound potency (EC50) and efficacy (Max response) against the human 5-HT1A receptor in stably transfected CHO-K1 cells were determined in a GPCR cell-based CAMP assay.
(§1) Cells were seeded in a total volume of 20 μL into white walled, 384-well microplates and incubated at 37° C. overnight before analysis. Prior to testing, cell plating media was exchanged with 10 μL of Assay buffer (HBSS+10 mM HEPES). Briefly, intermediate dilution of sample stocks were performed to generate 4× sample in assay buffer. 5 μL of 4× samples+5 μL of 4× forskolin were added to cells and incubated at 37° C. for 30 minutes (mins). The final assay vehicle concentration was 1%.
as §1, with “sample stocks was performed to” for “sample stocks were performed to”, “generate 4× samples in assay” for “generate 4× sample in assay”, “4× forskolin was added to” for “4× forskolin were added to”, “for 30 mins. The final” for “for 30 minutes (mins). The final”

[2] = Plasma protein binding by equilibrium dialysis, human; type: in vitro ADME; conditions: for fraction unbound at 6 h, 1 μM: read-out: % Bound (converted); for recovery at 6 h, 1 µM: human, plasma
Experimental: The final concentration of compound was 1 μM. The final concentration of DMSO was 0.5%. Ketoconazole was used as positive control in the assay.
The assay was performed in duplicate.
All calculations were carried out using Microsoft Excel. […] The percentages of bound compound were calculated as follows: […]
Ketoconazole was used as positive control in the assay.

human 5-HT2A receptor = target: T2, human 5-HT2A receptor (Homo sapiens, UniProt P28223); assay: Human 5-HT2A β-arrestin reporter assay; type: cell-based; conditions: for Emax (% of serotonin): U2OS cells, relative to maximum response of serotonin
T2 construct: expressed in transfected cells; host or cells: U2OS
T2 sequence (P28223 whole entry): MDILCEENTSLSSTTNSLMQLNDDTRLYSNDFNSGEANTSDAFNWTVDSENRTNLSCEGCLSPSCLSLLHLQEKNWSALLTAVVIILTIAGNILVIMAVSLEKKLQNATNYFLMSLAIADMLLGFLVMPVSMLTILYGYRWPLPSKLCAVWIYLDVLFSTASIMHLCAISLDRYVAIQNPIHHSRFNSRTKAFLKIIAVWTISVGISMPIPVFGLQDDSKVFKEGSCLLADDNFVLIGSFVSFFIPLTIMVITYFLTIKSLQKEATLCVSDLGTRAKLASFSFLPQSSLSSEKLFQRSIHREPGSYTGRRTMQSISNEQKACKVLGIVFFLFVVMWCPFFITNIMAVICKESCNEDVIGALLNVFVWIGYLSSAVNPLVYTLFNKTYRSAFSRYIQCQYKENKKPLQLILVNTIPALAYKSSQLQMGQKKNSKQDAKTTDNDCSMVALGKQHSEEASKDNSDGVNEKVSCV
Experimental: Compound potency (EC50) and efficacy (Max response) against the human 5-HT2A receptor in stably transfected U2OS cells were determined in a G protein-coupled receptors (GPCR) cell based β-arrestin reporter assay.
(§2) Cells were seeded in a total volume of 20 μL into white walled, 384-well microplates and incubated at 37° C. overnight before analysis. For agonist determination, cells were incubated with samples to induce response. Intermediate dilution of sample stocks was performed to generate 5× samples in assay buffer. 5 μL of 5× samples were added to cells and incubated at 37° C. for 120 minutes. The final assay vehicle concentration was 1%. The results are expressed as percent efficacy relative to the maximum response of the control ligand (serotonin) in Table 10.
Compound potency (EC50) and efficacy (Max response) against the human 5-HT2A receptor in stably transfected U2OS cells was determined in a GPCR cell based β-arrestin reporter assay.
as §2, with “with sample” for “with samples”, “120 mins.” for “120 minutes.”, “Table 48.” for “Table 10.”

[3] = cAMP assay with forskolin, stably transfected CHO-K1 cells, 30 min, read-out: EC50
[4] = human plasma, equilibrium dialysis, 37° C., 6 hours
[5] = β-arrestin reporter, stably transfected U2OS cells, 120 min, read-out: EC50

Sequence of human 5-hydroxytryptamine receptor 2A (5-HT2A) (P28223 whole entry): as above

Compound	IC50 [1]	EC50 (human 5-HT1A receptor)	Emax (% of serotonin) (human 5-HT1A receptor)	% Remaining @ 6 hours ([2]; Human plasma, 1 μM, 6 hours, 37° C.)	fraction unbound at 6 h, 1 μM ([2]; Human plasma, 1 μM, equilibrium dialysis 6 hours, 37° C.)	recovery at 6 h, 1 µM ([2]; Human plasma, 1 μM, equilibrium dialysis 6 hours)	EC50 (human 5-HT2A receptor)	Emax (% of serotonin) (human 5-HT2A receptor; β-arrestin reporter)	EC50 (human 5-HT1A receptor; [3])	% Remaining @ 6 hours ([2]; human plasma, 6 hours)	fraction unbound at 6 h, 1 μM [2, 4]	recovery at 6 h, 1 µM [2, 4]	EC50 (human 5-HT2A receptor; [5])	IC50 ([1]; [3H]-ketanserin displacement, cell membrane, 27° C., 90 min, read-out: h5-HT2A, IC50)
[2H]C([2H])(c1c[nH]c2ccc(OCCCCCN3C(=O)C4CCCCC4C3=O)cc12)[C@H]1CCCN1C([2H])([2H])[2H] (mixture of isomers) [Rac (R) I-248]	310 nM													
CSc1ccc2[nH]cc(C[C@H]3CCCN3C)c2c1 [(R) I-1, (R)-3-((1-Methylpyrrolidin-2-yl)methyl)-5-(methylthio)-1H-indole]	154 nM	11.1 nM	99.41 % of serotonin	103.38%	0.16	102%	25.4 nM	79.27 % of serotonin						
COCCN1CCC[C@@H]1Cc1c[nH]c2ccc(OC)cc12 [(R) I-98, (R)-5-Methoxy-3-((1-(2-methoxyethyl)pyrrolidin-2-yl)methyl)-1H-indole]	350 nM		96.42 % of serotonin					81.67 % of serotonin	40.3 nM	104.64%	0.168	101%	25.8 nM	
[2H]C([2H])(c1c[nH]c2ccc(OCCCCN3C(=O)c4ccccc4C3=O)cc12)[C@H]1CCCN1C([2H])([2H])[2H] [(R) I-244, (R)-2-(4-((3-((1-(Methyl-d3)pyrrolidin-2-yl)methyl-d2)-1H-indol-5-yl)oxy)butyl)isoindoline-1,3-dione]	129 nM		99.01 % of serotonin					79.58 % of serotonin	6.3 nM	105.89%	0.0142	90.1%	6.71 nM	
[2H]C([2H])(c1c[nH]c2ccc(OCCCCCN3C(=O)c4ccccc4C3=O)cc12)[C@H]1CCCN1C([2H])([2H])[2H] [(R) I-245, (R)-2-(5-((3-((1-(Methyl-d3)pyrrolidin-2-yl)methyl-d2)-1H-indol-5-yl)oxy)pentyl)isoindoline-1,3-dione]	225 nM		99.14 % of serotonin					82.18 % of serotonin	19.5 nM				28.4 nM	
[2H]C([2H])(c1c[nH]c2ccc(OCCCCCN3C(=O)[C@H]4CCCC[C@H]4C3=O)cc12)[C@H]1CCCN1C([2H])([2H])[2H] [Cis (R) I-248, 2-(5-((3-(((R)-1-(Methyl-d3)pyrrolidin-2-yl)methyl-d2)-1H-indol-5-yl)oxy)pentyl)hexahydro-1H-isoindole-1,3(2H)-dione]			96.76 % of serotonin					84.4 % of serotonin	52.7 nM				112 nM	
CN(C)CCc1c[nH]c2ccccc12 [DMT]			87.1 % of serotonin					38.86 % of serotonin					114 nM	954 nM
